The target of assay [1] is Neuronal acetylcholine receptor; alpha4/beta2 (Homo sapiens, UniProt P17787+P43681). The assay is described as follows: Displacement of [3H]-Epibatidine from alpha4beta2 nAChR (unknown origin) expressed in HEK293 cell membrane assessed as inhibition constant by beta counter method. The assay is classed as cell membranes. (In general: Loss of bound radioactivity is the signal in a displacement assay; it reports binding, not function.)

The target in assay [2] is Neuronal acetylcholine receptor; alpha3/beta4 (Homo sapiens, UniProt P30926+P32297). As to the kind of experiment: Displacement of [3H]-Epibatidine from alpha3beta4 nAChR (unknown origin) expressed in SH-EP1 cell membrane assessed as inhibition constant by beta counter method. The assay is classed as cell membranes.
Assay [3] addresses Neuronal acetylcholine receptor; alpha9/alpha10 (Homo sapiens) (UniProt Q9UGM1+Q9GZZ6). The assay is described as follows: Partial agonist activity at human alpha9alpha10 nAChR expressed in acetylcholine-induced Xenopus laevis oocytes assessed as residual activity treated for 1 sec followed by acetylcholine stimulation for 1 min post-compound treatment at holding potential of -70 mV by two electrode voltage-clamp assay. The assay is classed as cell-based. The note with it: Oocyte, time 61.0 sec.

Assay [4] addresses Neuronal acetylcholine receptor subunit alpha-7 (Homo sapiens) (UniProt P36544). The assay is described as follows: Antagonist activity at human alpha7 nAChR expressed in acetylcholine-induced Xenopus laevis oocytes treated for 1 sec followed by acetylcholine stimulation 1 min post-compound treatment at holding potential of -70 mV by two electrode voltage-clamp assay. The note with it: Oocyte, filed as antagonist, time 61.0 sec. The assay is classed as cell-based. A general note: Two-electrode voltage clamp is typically applied to oocytes expressing channels or transporters.

What is called Ki is a dissociation constant, usually derived from enzyme kinetics or from competition with a known ligand.

Active and inactive are the calls of the source. The rule behind the calls is not given here.

Neuronal acetylcholine receptor subunit alpha-7 (Homo sapiens), sequence (P36544 whole entry): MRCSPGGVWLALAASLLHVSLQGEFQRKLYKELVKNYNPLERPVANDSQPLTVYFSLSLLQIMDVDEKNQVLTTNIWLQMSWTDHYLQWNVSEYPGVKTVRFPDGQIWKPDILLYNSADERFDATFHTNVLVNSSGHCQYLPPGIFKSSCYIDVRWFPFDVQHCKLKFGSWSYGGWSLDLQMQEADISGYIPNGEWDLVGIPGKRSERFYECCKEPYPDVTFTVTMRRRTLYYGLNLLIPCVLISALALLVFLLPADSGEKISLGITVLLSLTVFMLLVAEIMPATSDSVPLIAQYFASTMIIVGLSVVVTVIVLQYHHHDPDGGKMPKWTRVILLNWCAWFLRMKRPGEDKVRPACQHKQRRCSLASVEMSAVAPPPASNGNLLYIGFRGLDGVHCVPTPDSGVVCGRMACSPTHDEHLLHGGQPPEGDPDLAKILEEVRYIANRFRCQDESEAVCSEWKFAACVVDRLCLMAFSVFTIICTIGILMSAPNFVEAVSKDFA
Neuronal acetylcholine receptor; alpha4/beta2, sequence (P17787 whole entry): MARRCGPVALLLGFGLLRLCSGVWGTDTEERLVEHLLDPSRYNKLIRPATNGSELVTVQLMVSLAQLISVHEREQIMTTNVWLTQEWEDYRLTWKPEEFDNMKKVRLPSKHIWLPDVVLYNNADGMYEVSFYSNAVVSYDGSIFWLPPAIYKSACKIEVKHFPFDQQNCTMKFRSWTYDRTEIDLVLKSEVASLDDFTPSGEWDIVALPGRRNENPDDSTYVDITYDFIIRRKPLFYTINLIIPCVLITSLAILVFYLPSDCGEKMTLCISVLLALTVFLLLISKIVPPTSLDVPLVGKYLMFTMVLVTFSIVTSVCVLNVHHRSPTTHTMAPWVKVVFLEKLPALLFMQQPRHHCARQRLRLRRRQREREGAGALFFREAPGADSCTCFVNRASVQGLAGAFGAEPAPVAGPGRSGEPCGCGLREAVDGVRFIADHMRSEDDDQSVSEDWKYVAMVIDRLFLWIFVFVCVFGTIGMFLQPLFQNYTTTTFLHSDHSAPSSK
Neuronal acetylcholine receptor; alpha4/beta2, sequence (P43681 whole entry): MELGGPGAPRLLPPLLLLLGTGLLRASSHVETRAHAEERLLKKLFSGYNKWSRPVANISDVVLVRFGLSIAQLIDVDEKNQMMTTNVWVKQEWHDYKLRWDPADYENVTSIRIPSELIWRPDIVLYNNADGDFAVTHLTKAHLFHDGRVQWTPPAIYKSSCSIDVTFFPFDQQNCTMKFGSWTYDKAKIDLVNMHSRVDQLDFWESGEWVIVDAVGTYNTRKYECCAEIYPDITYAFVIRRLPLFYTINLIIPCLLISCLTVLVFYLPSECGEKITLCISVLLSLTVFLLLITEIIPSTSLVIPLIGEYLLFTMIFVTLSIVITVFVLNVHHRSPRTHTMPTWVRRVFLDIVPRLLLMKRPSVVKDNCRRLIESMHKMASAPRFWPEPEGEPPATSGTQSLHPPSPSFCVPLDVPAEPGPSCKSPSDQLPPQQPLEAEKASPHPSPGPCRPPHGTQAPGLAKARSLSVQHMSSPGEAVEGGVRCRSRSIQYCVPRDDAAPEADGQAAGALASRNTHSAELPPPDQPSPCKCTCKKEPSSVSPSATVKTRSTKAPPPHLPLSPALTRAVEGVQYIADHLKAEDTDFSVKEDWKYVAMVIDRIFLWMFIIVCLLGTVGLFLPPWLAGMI
Neuronal acetylcholine receptor; alpha3/beta4, sequence (P30926 whole entry): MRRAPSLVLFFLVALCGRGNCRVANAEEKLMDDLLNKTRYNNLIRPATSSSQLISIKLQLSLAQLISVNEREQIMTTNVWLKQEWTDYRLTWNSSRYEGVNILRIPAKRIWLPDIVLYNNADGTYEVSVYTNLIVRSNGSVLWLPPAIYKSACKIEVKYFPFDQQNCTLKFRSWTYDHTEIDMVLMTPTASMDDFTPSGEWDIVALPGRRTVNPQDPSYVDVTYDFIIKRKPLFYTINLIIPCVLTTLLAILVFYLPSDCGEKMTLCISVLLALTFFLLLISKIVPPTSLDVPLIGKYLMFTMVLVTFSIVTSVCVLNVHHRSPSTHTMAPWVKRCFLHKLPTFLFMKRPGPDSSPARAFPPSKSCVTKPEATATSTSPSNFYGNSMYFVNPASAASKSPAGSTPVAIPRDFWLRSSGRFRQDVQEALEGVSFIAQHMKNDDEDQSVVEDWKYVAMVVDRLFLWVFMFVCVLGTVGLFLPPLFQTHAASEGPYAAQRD
Neuronal acetylcholine receptor; alpha3/beta4, sequence (P32297 whole entry): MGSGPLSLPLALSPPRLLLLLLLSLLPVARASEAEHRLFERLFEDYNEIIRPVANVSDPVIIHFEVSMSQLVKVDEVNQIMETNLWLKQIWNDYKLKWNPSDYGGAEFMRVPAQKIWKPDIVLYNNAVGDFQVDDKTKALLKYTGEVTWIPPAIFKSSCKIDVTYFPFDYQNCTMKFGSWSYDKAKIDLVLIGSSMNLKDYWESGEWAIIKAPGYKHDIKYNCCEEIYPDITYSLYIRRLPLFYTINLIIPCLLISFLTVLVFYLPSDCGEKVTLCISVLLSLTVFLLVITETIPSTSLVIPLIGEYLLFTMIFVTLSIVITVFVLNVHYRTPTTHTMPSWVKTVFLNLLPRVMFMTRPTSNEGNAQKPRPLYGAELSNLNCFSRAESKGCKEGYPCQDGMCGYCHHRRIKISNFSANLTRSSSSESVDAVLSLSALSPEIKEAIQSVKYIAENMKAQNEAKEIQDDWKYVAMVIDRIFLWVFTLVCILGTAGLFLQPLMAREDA

On to `CC[N+](CC)(CC)CCOc1ccc(OCc2ccccc2)cc1`, for which the Ki in assay [1] came out at 7.5 µM. As to `CC[N+](CC)(CC)CCOc1ccc(-c2cccc3ccccc23)cc1`, the Ki in assay [2] is 0.097 µM. Regarding `CC[N+](CC)(CC)CCOc1ccc(CCc2ccccc2)cc1`, the outcome in assay [3] was inactive. For `C[N+]1(C)CC[C@@H](Oc2ccc(-c3ccc4[nH]ccc4c3)cc2)C1`, the outcome in assay [4] was Active.

For the origin of these results see ChEMBL document CHEMBL5316267, “Subnanomolar Affinity and Selective Antagonism at α7 Nicotinic Receptor by Combined Modifications of 2-Triethylammonium Ethyl Ether of 4-Stilbenol (MG624)” (J Med Chem, 2023).
